According to patent publication US8652087B2, “Method for use of microdialysis” (priority 2009, dated 2014):

Key:
[1] = Charcoal MTZ adsorption kinetics study (PMD and direct donor sampling); assay type: physicochemical; conditions: 37° C., first minute after charcoal addition
Protocol: A charcoal suspension was prepared at least 24 hours before use by adding 0.6 g of activated charcoal (Sigma Chemical, St. Louis, Mo.) to 100 mL of 0.6% Dextran Solution (Birkmeier et al., 1995). A donor solution of MTZ in 0.005N NaOH was made with an initial concentration of C0=200 μg/mL and volume of 48 mL. A probe was immersed in the solution, and PMD was started before adding the charcoal using a dialysate that initially contained no MTZ. Samples were collected every 10 seconds, using a resting time of 8 seconds, a flow rate of 100 μL/min, and a sample volume of 5 μL. After collecting at least six samples, 2 mL of the charcoal suspension was quickly (in 1-2 seconds) mixed into 48 mL of stirred MTZ solution, giving a final volume of 50 mL. […] Samples were collected during 10 second intervals, and the start times for the sampling intervals were 0, 0.2, 0.4, 0.7, 1, 2, 5, 10 and 30 minutes. The flow rate was 100 μL/min, the rest time was 8 seconds, and the sample volume was 5 μL. The samples were immediately analyzed using HPLC. […] Direct sampling of the donor was also done at various times for comparison with the PMD data. The direct donor samples were immediately filtered to remove the activated charcoal and analyzed using HPLC.

[2] = at 37° C.; cited from earlier work
red blood cells = conditions: in the first 1-2 minutes; cited from earlier work
[3] = Benzocaine release from self-emulsifying microemulsion systems by PMD; assay type: physicochemical; conditions: occupying the probe window for one minute; Tween 20:Cremophor EL:peppermint oil systems diluted 1:25 in water
Protocol: The medium outside the probe served as the receiver in this case. Before the PMD experiments, various anhydrous liquid systems were made, to be used to release benzocaine. In all cases, two surfactants, Tween 20 and Cremophor EL (both from Sigma Chemical, St. Louis, Mo.), were blended in a 2:1 (weight:weight) ratio. Various amounts of peppermint oil were added (from 0 to 30% oil by weight) to make the anhydrous systems. Benzocaine (50 mg per gram of peppermint oil) was subsequently added to each system, and stirring was done until all benzocaine was dissolved and distributed within the oil and surfactant blend. These anhydrous systems were then diluted 1:25 in water, and used as the dialysate. A probe was immersed in 50 mL of water (which served as the receiver) that initially contained no drug. Since benzocaine is a weak base, various pH values were used, but the pH of the water and dialysate were the same in all cases. The dialysate (containing the microemulsions and acting as the donor) was pumped into the probe window, allowed to remain at rest for various resting times (5-100 seconds), pumped out and collected, and subsequently assayed for benzocaine content to determine the fraction of benzocaine lost as a function of the total time in the probe window. The flow rate Q was 100 μL/min and the sample volume was 5 μL.

Structure (SMILES)	decline of concentration during the first minute [1] [%]	diffusion coefficient (value of the reference drug) [2]	decrease of buffer concentration by uptake into red blood cells (red blood cells) [%]	benzocaine lost from microemulsion dialysate [3] [%]
CC(=O)/N=c1/sc(S(N)(=O)=O)nn1C [MTZ, methazolamide]	~50	4×10^−6 cm^2/s	50	–
CCOC(=O)c1ccc(N)cc1 [benzocaine]	–	–	–	≤ 90
